In one experiment the target is T1, dopamine D2 (Rattus norvegicus, UniProt P61169).
T1 construct: P2 fraction (synaptosomal membranes) prepared from male, Wistar rats; from tissue; host or cells: rat (Wistar, male) striatum, P2 synaptosomal membranes
Briefly: Receptor Binding Assay, dopamine D2 (3H-spiperone, P2 fraction from striatum). The arrangement: species or system male, Wistar rats. As to the method: The dopamine D2 and serotonin 5-HT1A binding activity of compounds was determined using a P2 fraction (synaptosomal membranes) prepared from male, Wistar rats. The D2 assay employed a P2 fraction from the striatum, the ligand ^3 H-spiperone at a concentration of 0.05 nM, and […] haloperidol as a blank determinant. […].
(§1) The data from each assay were analyzed by calculating the percent inhibition of the binding of the tritiated ligands by given concentrations of the test compound. KI values, where given, were obtained from the logit analysis of concentration-inhibition curves.

For a further experiment, the target named is T2, serotonin 5-HT1A (Rattus norvegicus, UniProt P19327).
T2 construct: P2 fraction (synaptosomal membranes) prepared from male, Wistar rats; from tissue; host or cells: rat (Wistar, male) cerebral cortex, P2 synaptosomal membranes
T2 sequence (P19327 1-422): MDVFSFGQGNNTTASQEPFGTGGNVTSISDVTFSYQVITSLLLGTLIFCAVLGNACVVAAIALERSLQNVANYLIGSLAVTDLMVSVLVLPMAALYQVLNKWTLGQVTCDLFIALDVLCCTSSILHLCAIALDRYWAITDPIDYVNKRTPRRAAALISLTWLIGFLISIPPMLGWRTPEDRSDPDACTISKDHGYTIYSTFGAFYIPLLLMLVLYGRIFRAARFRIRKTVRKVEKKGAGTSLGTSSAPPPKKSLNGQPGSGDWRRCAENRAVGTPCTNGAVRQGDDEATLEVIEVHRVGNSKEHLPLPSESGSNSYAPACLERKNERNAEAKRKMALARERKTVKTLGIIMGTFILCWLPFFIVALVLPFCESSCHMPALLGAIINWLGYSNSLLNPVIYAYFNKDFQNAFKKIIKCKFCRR
The experiment can be described thus: Receptor Binding Assay, serotonin 5-HT1A (3H-8-hydroxy-DPAT, P2 fraction from cerebral cortex). Set-up: species or system male, Wistar rats. As to conditions: known drugs, 3H-8-hydroxy-DPAT 3 nM, pH 7.5, 20 min, 25° C., read-out: KI values for some known drugs, 5-HT1A assay. As for the experimental part: The dopamine D2 and serotonin 5-HT1A binding activity of compounds was determined using a P2 fraction (synaptosomal membranes) prepared from male, Wistar rats.
as §1

[1] abbreviates: 3H-spiperone 0.05 nM, rat striatum P2 fraction, pH 7.5, 45 min, 37° C., read-out: Receptor Binding, Ki, D-2.

The structures appear in SMILES notation. Where a name gives a salt, the structure may show the parent alone. Read-outs that look alike come from different tables or passages of the source.

Broadly, the Ki is the equilibrium dissociation constant of an inhibitor or competing ligand from its target.

T1 sequence (P61169 whole entry): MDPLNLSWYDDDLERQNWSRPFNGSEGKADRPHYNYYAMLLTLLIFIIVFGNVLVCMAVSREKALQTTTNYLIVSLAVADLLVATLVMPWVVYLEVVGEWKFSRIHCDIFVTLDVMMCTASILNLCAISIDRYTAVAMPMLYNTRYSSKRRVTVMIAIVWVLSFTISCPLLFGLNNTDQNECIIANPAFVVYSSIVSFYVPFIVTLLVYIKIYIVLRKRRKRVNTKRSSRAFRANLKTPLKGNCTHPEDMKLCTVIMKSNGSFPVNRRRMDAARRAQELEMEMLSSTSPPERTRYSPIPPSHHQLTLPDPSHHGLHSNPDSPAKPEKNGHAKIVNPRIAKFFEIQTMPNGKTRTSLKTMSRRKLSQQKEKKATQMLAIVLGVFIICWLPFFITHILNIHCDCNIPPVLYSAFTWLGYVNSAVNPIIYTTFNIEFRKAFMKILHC

`O=C(c1cccc(CN2CCc3c([nH]c4ccccc34)C2)c1)N1CCCCC1` [Compound 9, 1-(3-(2-(1,2,3,4-Tetrahydro-9H-pyrido(3,4-b)indolyl)methyl)-benzoyl)piperidine Monooxalate 0.3 Hydrate]: the Ki on dopamine D2 is 374 nM.

In turn, `O=C(c1cccc(CN2CCc3c([nH]c4ccccc34)C2)c1)N1CCc2ccccc21` [Compound 11, 1-(3-(2-(1,2,3,4-Tetrahydro-9H-pyrido(3.4-b)indolyl)methyl)benzoyl)indoline Monofumarate] came in with an inhibition constant Ki at dopamine D2 of more than 1000 nM.

For the molecule `O=C(c1cccc(CN2CCN3c4ccccc4OCC3C2)c1)N1CCCCC1` (centres unmarked) [Compound 13, 1-(3-(1-(1,2,3,4,4a,5-hexahydropyrazino(1.2-c)-1,4-benzoxazinyl)methyl)benzoyl)pipridine Sesquioxalate], the Ki on dopamine D2 (setting [1]) is more than 1000 nM.

On to `O=C(c1cccc(CN2CCN3c4ccccc4OCC3C2)c1)N1CCc2ccccc21` (centres unmarked) [Compound 14, 1-(3-(3-(1,2,3,4,4a,5-Hexahydropyrazino(1,2-c)-1,4-benzoxazinyl)methyl)benzoyl)iondoline 1.2 Oxalate], for which the Ki at dopamine D2 (setting [1]) is more than 1000 nM.

As to `Cc1ccc(N(CC2=NCCN2)c2cccc(O)c2)cc1` [phentolamine], the Ki at serotonin 5-HT1A was found to be 59 nM.

The values are drawn from patent US5512566A, “Tricyclic compounds having affinity for the 5-HT1A receptor” (priority 1993, dated 1996).
